Data: PubChem BioAssay AID248 (DTP/NCI, 2004)
Values joined by “and” are separate entries in the source; they are usually repeats but may differ in a detail not shown here. Identical values can stand only once. Toxic doses and inconclusive results are not listed. Rule as the data show it: active = T/C of 150% or more; inactive = T/C below 125%. Square brackets hold non-standard residues; d marks the D form. Peptide text beside a SMILES is read from it. * marks the point of attachment. ξ: configuration not given here. Cbz = O=C(OCc1ccccc1)*; ξM = CSCCC(N)C(=O)O

System: L1210 leukemia ip in BDF1 mice, survival T/C
Assay: NCI In Vivo Anticancer Drug Screen. Data for tumor model L1210 Leukemia (intraperitoneal) in B6D2F1 (BDF1) mice
Details: endpoint: mean survival time, higher = longer survival
Summary of the method: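 Survival endpoint. Drug-treated group vs vehicle group, expressed as T divided by C. Tumor passaged by transplantation.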

[1] = dose: 50.0 mg/kg/injection, schedule: Q01DX009 (ip), vehicle: Klucel (hydroxypropylcellulose) (HPC)
[2] = dose: 100.0 mg/kg/injection, schedule: Q01DX009 (ip), vehicle: Klucel (hydroxypropylcellulose) (HPC)
[3] = dose: 200.0 mg/kg/injection, schedule: Q01DX009 (ip), vehicle: Klucel (hydroxypropylcellulose) (HPC)
[4] = dose: 400.0 mg/kg/injection, schedule: Q01DX009 (ip), vehicle: Klucel (hydroxypropylcellulose) (HPC)
[5] = dose: 100.0 mg/kg/injection, schedule: Q01DX009 (ip), vehicle: saline
[6] = dose: 100.0 mg/kg/injection, schedule: Q01DX001 (ip), vehicle: saline
[7] = dose: 200.0 mg/kg/injection, schedule: Q01DX001 (ip), vehicle: saline
[8] = dose: 100.0 mg/kg/injection, schedule: Q01DX001 (ip), vehicle: carboxymethylcellulose (CMC)
[9] = dose: 200.0 mg/kg/injection, schedule: Q01DX001 (ip), vehicle: carboxymethylcellulose (CMC)
[10] = dose: 400.0 mg/kg/injection, schedule: Q01DX001 (ip), vehicle: carboxymethylcellulose (CMC)
[11] = dose: 100.0 mg/kg/injection, schedule: Q04DX003 (ip), vehicle: Klucel (hydroxypropylcellulose) (HPC)
[12] = dose: 200.0 mg/kg/injection, schedule: Q04DX003 (ip), vehicle: Klucel (hydroxypropylcellulose) (HPC)
[13] = dose: 400.0 mg/kg/injection, schedule: Q04DX003 (ip), vehicle: Klucel (hydroxypropylcellulose) (HPC)

Measured: T/C

COc1ccc([PH+](c2ccc(OC)cc2)c2ccc(OC)cc2)cc1.COc1ccc([PH+](c2ccc(OC)cc2)c2ccc(OC)cc2)cc1.[Cl][Hg][Cl]
inactive: [1] 108 % of control | [2] 101 % of control | [3] 93 % of control

C=CCc1cn(C2OC(COC(=O)c3ccc(Cl)cc3)C(OC(=O)c3ccc(Cl)cc3)C2O)c(=O)[nH]c1=O (centres undefined)
inactive: dose: 100.0 mg/kg/injection, schedule: Q01DX005 (ip), vehicle: saline 90 % of control | dose: 200.0 mg/kg/injection, schedule: Q01DX005 (ip), vehicle: saline 91 % of control

Cc1cc(N(c2c(Cl)c(Cl)c(NS(=O)(=O)c3ccccc3)c(Cl)c2Cl)S(=O)(=O)c2ccccc2)cc(C)c1N
inactive: dose: 100.0 mg/kg/injection, schedule: Q01DX001 (ip), vehicle: Klucel (hydroxypropylcellulose) (HPC) 98 % of control | [2] 100 % of control | dose: 200.0 mg/kg/injection, schedule: Q01DX001 (ip), vehicle: Klucel (hydroxypropylcellulose) (HPC) 95 % of control | [3] 95 % of control | dose: 400.0 mg/kg/injection, schedule: Q01DX001 (ip), vehicle: Klucel (hydroxypropylcellulose) (HPC) 90 % of control | [4] 94 % of control

O/N=C1\CCCC\C1=N/O.O/N=C1\CCCC\C1=N/O.[Pd]
inactive: dose: 100.0 mg/kg/injection, schedule: Q01DX009 (ip), vehicle: other 94 % of control | dose: 100.0 mg/kg/injection, schedule: Q04DX003 (ip), vehicle: other 102 % of control | dose: 200.0 mg/kg/injection, schedule: Q01DX009 (ip), vehicle: other 107 % of control | dose: 200.0 mg/kg/injection, schedule: Q04DX003 (ip), vehicle: other 98 % of control | dose: 400.0 mg/kg/injection, schedule: Q01DX009 (ip), vehicle: other 91 % of control | dose: 400.0 mg/kg/injection, schedule: Q04DX003 (ip), vehicle: other 90 % of control

O=C1NC(=O)C(O)(O)C(=O)N1
inactive: [5] 104 % of control | dose: 200.0 mg/kg/injection, schedule: Q01DX009 (ip), vehicle: saline 93 % of control

C1COC2(OC1)OCCCO2
inactive: dose: 100.0 mg/kg/injection, schedule: Q04DX002 (ip), vehicle: Klucel (hydroxypropylcellulose) (HPC) 108 % of control | dose: 200.0 mg/kg/injection, schedule: Q04DX002 (ip), vehicle: Klucel (hydroxypropylcellulose) (HPC) 105 % of control | dose: 400.0 mg/kg/injection, schedule: Q04DX002 (ip), vehicle: Klucel (hydroxypropylcellulose) (HPC) 105 % of control

O=C(N/N=C\c1cccc([N+](=O)[O-])c1)N/N=C/c1cccc([N+](=O)[O-])c1
inactive: dose: 6.25 mg/kg/injection, schedule: Q04DX003 (ip), vehicle: saline with Tween-80 92 % of control | dose: 12.5 mg/kg/injection, schedule: Q04DX003 (ip), vehicle: saline with Tween-80 97 % of control | dose: 25.0 mg/kg/injection, schedule: Q04DX003 (ip), vehicle: saline with Tween-80 87 % of control

CN(/N=C/c1ccccc1)C(=S)Nc1ccccc1
inactive: dose: 62.5 mg/kg/injection, schedule: Q04DX003 (ip), vehicle: Klucel (hydroxypropylcellulose) (HPC) 100 % of control | dose: 250.0 mg/kg/injection, schedule: Q04DX003 (ip), vehicle: Klucel (hydroxypropylcellulose) (HPC) 103 % of control

CCCCC(=O)N/N=C\c1ccc(-c2ccccc2)cc1
inactive: [6] 93 % of control | [7] 96 % of control

COC(=O)C(CCSC)NC(=O)CNC(=O)CNC(=O)OCc1ccccc1 (stereo not drawn) (Cbz-Gly-Gly-[ξM]-OMe)
inactive: dose: 100.0 mg/kg/injection, schedule: Q04DX003 (ip), vehicle: saline with Tween-80 106 % of control | dose: 200.0 mg/kg/injection, schedule: Q04DX003 (ip), vehicle: saline with Tween-80 101 % of control | dose: 400.0 mg/kg/injection, schedule: Q04DX003 (ip), vehicle: saline with Tween-80 95 % of control

Oc1c(-c2ccccc2)nn(O)c1-c1ccccc1
inactive: [1] 105 % of control

CCOC(=O)c1cc(C)nc(Cl)c1C#N
inactive: [8] 96 % of control | [9] 96 % of control | [10] 93 % of control

CN(C)c1ccc(C=C2c3ccccc3-c3ccccc32)cc1
inactive: [11] 97 % of control | [12] 96 % of control | [13] 94 % of control

CC(=O)N(CCCc1ccccc1)C(C)(C)C
inactive: dose: 50.0 mg/kg/injection, schedule: Q01DX009 (ip), vehicle: saline 104 % of control | [6] 110 % of control | [5] 110 % of control | [7] 114 % of control

CSc1cc2c(cc1NC(C)=O)Cc1cc(F)ccc1-2
inactive: [8] 98 % of control | [9] 101 % of control | [10] 95 % of control

O=C1C(N2CCCCC2)=C(N2CC2)C(=O)C(N2CCCCC2)=C1N1CC1
inactive: dose: 0.39 mg/kg/injection, schedule: Q04DX003 (ip), vehicle: saline 94 % of control and 96 % of control | dose: 0.78 mg/kg/injection, schedule: Q04DX003 (ip), vehicle: saline 100 % of control and 103 % of control | dose: 1.56 mg/kg/injection, schedule: Q04DX003 (ip), vehicle: saline 103 % of control and 107 % of control | dose: 3.12 mg/kg/injection, schedule: Q04DX003 (ip), vehicle: saline 103 % of control and 107 % of control | dose: 6.25 mg/kg/injection, schedule: Q04DX003 (ip), vehicle: saline 96 % of control and 100 % of control | dose: 10.0 mg/kg/injection, schedule: Q01DX001 (ip), vehicle: saline 86 % of control | dose: 12.5 mg/kg/injection, schedule: Q04DX003 (ip), vehicle: saline 103 % of control and 122 % of control | dose: 20.0 mg/kg/injection, schedule: Q01DX001 (ip), vehicle: saline 99 % of control | dose: 35.0 mg/kg/injection, schedule: Q04DX003 (ip), vehicle: saline 101 % of control | dose: 40.0 mg/kg/injection, schedule: Q01DX001 (ip), vehicle: saline 93 % of control | dose: 55.0 mg/kg/injection, schedule: Q04DX003 (ip), vehicle: saline 90 % of control | dose: 80.0 mg/kg/injection, schedule: Q01DX001 (ip), vehicle: saline 108 % of control | dose: 80.0 mg/kg/injection, schedule: Q04DX003 (ip), vehicle: saline 88 % of control

O=C(NCCCl)Nc1cccc2cc3ccccc3cc12
inactive: [2] 95 % of control | [11] 96 % of control | [3] 103 % of control | [12] 96 % of control | [4] 95 % of control | [13] 102 % of control

CC(C)C(C#Cc1ccccc1)N1CCCCC1 (centres undefined)
inactive: dose: 100.0 mg/kg/injection, schedule: Q04DX002 (ip), vehicle: saline with Tween-80 103 % of control | dose: 200.0 mg/kg/injection, schedule: Q04DX002 (ip), vehicle: saline with Tween-80 87 % of control | dose: 400.0 mg/kg/injection, schedule: Q04DX002 (ip), vehicle: saline with Tween-80 97 % of control

CC(C)(C)C1CCC2(CC1)CCN(N1CCCCCC1)CC2
inactive: dose: 50.0 mg/kg/injection, schedule: Q01DX001 (ip), vehicle: carboxymethylcellulose (CMC) 101 % of control | [8] 111 % of control | [9] 95 % of control | [10] 103 % of control

COc1ncnc(Cl)c1[N+](=O)[O-]
inactive: dose: 50.0 mg/kg/injection, schedule: Q04DX003 (ip), vehicle: Klucel (hydroxypropylcellulose) (HPC) 92 % of control | [11] 92 % of control and 86 % of control | [12] 97 % of control and 91 % of control

C=CCn1c(-c2ccc(N(C)C)cc2)nc2c(Cl)ncnc21
inactive: dose: 5.0 mg/kg/injection, schedule: Q01DX009 (ip), vehicle: steriod suspending solution 97 % of control | dose: 9.0 mg/kg/injection, schedule: Q01DX009 (ip), vehicle: steriod suspending solution 98 % of control | dose: 14.0 mg/kg/injection, schedule: Q01DX009 (ip), vehicle: steriod suspending solution 102 % of control | dose: 24.0 mg/kg/injection, schedule: Q01DX009 (ip), vehicle: steriod suspending solution 95 % of control

CN1CCCC(CC2c3ccccc3Sc3ccccc32)C1 (centres undefined)
inactive: dose: 2.0 mg/kg/injection, schedule: Q01DX015 (ip), vehicle: carboxymethylcellulose (CMC) 108 % of control | dose: 4.0 mg/kg/injection, schedule: Q01DX015 (ip), vehicle: carboxymethylcellulose (CMC) 98 % of control | dose: 8.0 mg/kg/injection, schedule: Q01DX015 (ip), vehicle: carboxymethylcellulose (CMC) 97 % of control | dose: 16.0 mg/kg/injection, schedule: Q01DX015 (ip), vehicle: carboxymethylcellulose (CMC) 91 % of control | dose: 32.0 mg/kg/injection, schedule: Q01DX015 (ip), vehicle: carboxymethylcellulose (CMC) 92 % of control
